Data taken from ChEMBL document CHEMBL3758105 (J Med Chem, 2016).

Tests used:
Collagenase 3 = Collagenase 3 (Homo sapiens, UniProt P45452); assay: Inhibition of full length human recombinant MMP13 using MCA-Arg-Pro-Leu-Gly-Leu-Dpa-Ala-Arg-Glu-Arg-NH2 as substrate preincubated for 60 mins followed by substrate addition by fluorescence assay
Stromelysin-1 = Stromelysin-1 (Homo sapiens, UniProt P08254); assay: Inhibition of MMP3 (unknown origin) catalytic domain using MCA-Arg-Pro-Leu-Gly-Leu-Dpa-Ala-Arg-Glu-Arg-NH2 as substrate preincubated for 60 mins followed by substrate addition by fluorescence assay
CYP2C9 = CYP2C9 (Homo sapiens, UniProt P11712); assay: Inhibition of CYP2C9 in human liver microsomes assessed as reduction of diclofenac metabolism at 3 uM after 8 mins; format: ADME; settings: probe diclofenac
[1] = Clearance in Sprague-Dawley rat at 1 mg/kg, iv administered as bolus dose by LC-MS/MS analysis; format: ADME, organism-based; settings: in vivo
[2] = Intrinsic clearance in rat liver microsomes measured over 40 mins by HPLC/MS analysis; format: ADME; settings: read-out: CLH
physchem = settings: buffer, pH 7.4
[3] = Intrinsic clearance in human liver microsomes measured over 40 mins by HPLC/MS analysis; format: ADME; settings: read-out: CLH

Sequence of CYP2C9 (P11712 whole entry): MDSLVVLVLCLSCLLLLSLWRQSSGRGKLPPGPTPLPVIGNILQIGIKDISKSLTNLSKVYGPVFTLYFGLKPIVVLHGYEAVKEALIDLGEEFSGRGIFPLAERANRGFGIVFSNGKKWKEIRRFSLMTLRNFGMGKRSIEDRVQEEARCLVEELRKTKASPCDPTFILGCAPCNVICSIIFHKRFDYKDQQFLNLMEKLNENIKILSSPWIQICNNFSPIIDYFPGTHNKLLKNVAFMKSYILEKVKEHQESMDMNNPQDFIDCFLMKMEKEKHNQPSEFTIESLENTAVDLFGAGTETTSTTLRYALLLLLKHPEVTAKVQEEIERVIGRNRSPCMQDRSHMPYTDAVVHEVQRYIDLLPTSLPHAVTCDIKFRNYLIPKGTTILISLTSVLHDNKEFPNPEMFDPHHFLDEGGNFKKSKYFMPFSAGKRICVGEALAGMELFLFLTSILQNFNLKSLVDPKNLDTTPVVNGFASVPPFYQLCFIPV
Sequence of Stromelysin-1 (P08254 whole entry, the tested form may be a part): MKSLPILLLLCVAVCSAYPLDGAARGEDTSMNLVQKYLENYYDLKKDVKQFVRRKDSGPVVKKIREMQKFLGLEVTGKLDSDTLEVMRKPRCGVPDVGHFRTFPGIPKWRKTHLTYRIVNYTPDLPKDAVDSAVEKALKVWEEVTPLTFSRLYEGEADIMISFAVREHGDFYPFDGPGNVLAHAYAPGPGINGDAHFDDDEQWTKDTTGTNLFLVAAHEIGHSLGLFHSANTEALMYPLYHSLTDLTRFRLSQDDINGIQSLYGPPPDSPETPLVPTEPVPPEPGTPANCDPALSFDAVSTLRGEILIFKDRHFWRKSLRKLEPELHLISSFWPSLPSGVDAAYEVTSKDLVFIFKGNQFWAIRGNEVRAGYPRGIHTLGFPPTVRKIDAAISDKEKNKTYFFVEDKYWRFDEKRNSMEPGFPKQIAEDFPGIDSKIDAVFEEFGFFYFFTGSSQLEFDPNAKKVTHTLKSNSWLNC

| Ki (Collagenase 3) | Ki (Stromelysin-1) | inhibition at 8 min, 3 µM (CYP2C9) | Compound | other results |
| --- | --- | --- | --- | --- |
| 4.1 nM | 8730 nM |  | COc1cccc(CNC(=O)c2cc(-c3nnn(C[C@H]4CC[C@@H](CO)CC4)n3)cc(C)n2)c1 |  |
| 4 nM |  | 90% | Cc1cc(-c2nnn(C[C@H]3CC[C@H](CO)CC3)n2)cc(C(=O)NCc2ccc(F)c(Cl)c2)n1 |  |
| 2.7 nM | 7210 nM |  | COc1cccc(CNC(=O)c2cc(-c3nnn(C[C@H]4CC[C@H](C#N)CC4)n3)cc(C)n2)c1 |  |
| 8.2 nM | > 10000 nM |  | COc1cccc(CNC(=O)c2cc(-c3nnn(C[C@H]4CC[C@@H](NS(C)(=O)=O)CC4)n3)cc(C)n2)c1 |  |
| 1.4 nM | > 10000 nM |  | COc1cccc(CNC(=O)c2cc(-c3nnn(C[C@H]4CC[C@@H](NC(C)=O)CC4)n3)cc(C)n2)c1 |  |
| 110 nM |  |  | Cc1cc(-c2nnn(C[C@H]3CC[C@H](CO)CC3)n2)cc(C(=O)NCc2cccc(F)c2)n1 |  |
| 6.3 nM |  | 90% | Cc1cc(-c2nnn(C[C@H]3CC[C@H](CO)CC3)n2)cc(C(=O)NCc2ccc(F)c(C(F)(F)F)c2)n1 |  |
|  | > 10000 nM |  | COc1cccc(CNC(=O)c2cc(-c3nnn(C[C@H]4CC[C@H](C(=O)O)CC4)n3)cc(C)n2)c1 |  |
| 32.9 nM |  | 56% | Cc1cc(-c2nnn(C[C@H]3CC[C@H](CO)CC3)n2)cc(C(=O)NCc2ccc(F)cc2)n1 |  |
| 29.3 nM |  | 83% | Cc1cc(-c2nnn(C[C@H]3CC[C@H](CO)CC3)n2)cc(C(=O)NCc2ccc(F)c(F)c2)n1 |  |
| 5.8 nM | > 10000 nM |  | COc1cccc(CNC(=O)c2cc(-c3nnn(CC4CCN(S(C)(=O)=O)CC4)n3)cc(C)n2)c1 |  |
| 119 nM |  | 78% | Cc1cc(-c2nnn(C[C@H]3CC[C@H](CO)CC3)n2)cc(C(=O)NCc2ccccc2)n1 |  |
| 23.8 nM |  | 94% | Cc1cc(-c2nnn(C[C@H]3CC[C@H](CO)CC3)n2)cc(C(=O)NCc2cccc(C(F)(F)F)c2)n1 |  |
| 16.8 nM | > 10000 nM |  | COc1cccc(CNC(=O)c2cc(-c3nnn(CC4CCCCO4)n3)cc(C)n2)c1 (single isomer, unassigned; (+)) |  |
| 7.7 nM |  |  | COc1cccc(CNC(=O)c2cc(-c3nnn(CC4CCCCO4)n3)cc(C)n2)c1 (single isomer, unassigned; (-)) | clearance [1]: 54.5 mL/min/kg; microsomal CLint [2]: 192 µL/min/mg; logD (physchem): 3.22; microsomal CLint [3]: 53.1 µL/min/mg |
| 14.1 nM | > 10000 nM |  | COc1cccc(CNC(=O)c2cc(-c3nnn(CC4COCCO4)n3)cc(C)n2)c1 (racemic) | clearance [1]: 25.8 mL/min/kg; microsomal CLint [2]: 74 µL/min/mg; logD (physchem): 2.49; microsomal CLint [3]: < 8 µL/min/mg |
| 16.5 nM | > 10000 nM |  | COc1cccc(CNC(=O)c2cc(-c3nnn(CC4CCCOC4)n3)cc(C)n2)c1 (racemic) |  |
| 38.5 nM |  |  | Cc1cc(-c2nnn(C[C@H]3CC[C@H](CO)CC3)n2)cc(C(=O)NCc2cccc(Cl)c2)n1 |  |
| 3.8 nM |  | 96% | Cc1cc(-c2nnn(C[C@H]3CC[C@H](CO)CC3)n2)cc(C(=O)NCc2ccc(F)c(C)c2)n1 |  |
| 16.6 nM | > 10000 nM |  | COc1cccc(CNC(=O)c2cc(-c3nnn(CC4CCN(C(C)=O)CC4)n3)cc(C)n2)c1 |  |
| 47.2 nM |  | 93% | Cc1cccc(CNC(=O)c2cc(-c3nnn(C[C@H]4CC[C@H](CO)CC4)n3)cc(C)n2)c1 |  |
| 21.2 nM |  |  | COc1cccc(CNC(=O)c2cc(-c3nnn(C[C@H]4CC[C@H](C(N)=O)CC4)n3)cc(C)n2)c1 |  |
| 1.2 nM |  | 39% | COc1cc(CNC(=O)c2cc(-c3nnn(C[C@H]4CC[C@H](CO)CC4)n3)cc(C)n2)ccc1F |  |
| 33.6 nM | > 10000 nM |  | COc1cccc(CNC(=O)c2cc(-c3nnn(CC4CCCCC4)n3)cc(C)n2)c1 | clearance [1]: 63.5 mL/min/kg; microsomal CLint [2]: 98.5 µL/min/mg; logD (physchem): 4.37; microsomal CLint [3]: 41.7 µL/min/mg |
| 10.9 nM | > 10000 nM |  | COc1cccc(CNC(=O)c2cc(-c3nnn(C[C@H]4CC[C@@H](O)CC4)n3)cc(C)n2)c1 |  |
| 4.5 nM | > 10000 nM |  | COc1cccc(CNC(=O)c2cc(-c3nnn(C[C@H]4CC[C@H](O)CC4)n3)cc(C)n2)c1 |  |
